What was measured:
Dugesia japonica = experiment: Planarian regeneration, anterior-posterior phenotype (anteriorizing index) under GJC inhibition; type: in vivo
Description: Regenerating worms were contacted with the compound at an early stage of regeneration (2 days after cutting). 1-10 μM heptanol was dissolved in the medium. […] At 7 days post-cutting, we assayed the worms for the morphology of blastemas.
We next sought to ascertain whether the anteriorizing effect was dependent on the AP (anterior-posterior) level from which the fragment originated. Worms were amputated at four levels to make five body fragments: head, pre-pharyngeal, trunk (including the pharynx), post-pharyngeal and tail fragments.
The asexual clonal strain GI of the planarian, Dugesia japonica, was used in these study. In all experiments, the worms were starved for 1 week before use.
Intact worms 1-1.5 cm long were put into heptanol (or hexanol) solution (0.0045-0.006% vigorously vortexed into spring water) immediately prior to amputation to equilibrate the worms with the drug solution. The worms were amputated at four levels to generate the head, pre-pharyngeal, trunk (or “pharyngeal”), post-pharyngeal, and tail fragments. Worm fragments were incubated at 22° C. for 2 days. The heptanol solution was exchanged for fresh solution every day. The worms were then washed with water twice and incubated in worm water for 14-20 days to monitor the phenotypes.
We developed a quantitative scheme allowing comparison of degree of anteriorization among groups of worms. Each worm was scored on the following scale by observing the posterior blastema: 0 points—normal (a normal worm with a fully-patterned tail), 1 point—weak anteriorization of posterior blastema (missing tail or bipolar pharynx), 2 points—stronger anteriorization of posterior blastema (incomplete ectopic head with eye structures), or 3 points—complete anteriorization of posterior blastema (bipolar head, where the ectopic head has complete development with 2 normal eyes). For each group of worms, we calculated an average score that is the sum of all scores for the worms divided by the total number of worms. For convenience, the index was scaled from 0 to 100 (final index=average score*100/3). On this scale, a group of worms that were all normal would score 0, while a group of worms all of which were fully double-head would score 100. This scheme was focused on ascertaining the extent of anteriorization as judged by external morphology.

[1] = tested on: Xenopus tail regeneration; settings: compound in medium beginning immediately after tail amputation (stage 40-41)
[2] = tested on: Sonic hedgehog (Shh), Nodal; experiment: Sidedness of Shh and Nodal expression in chick embryos (in ovo culture, in situ hybridization); settings: in vivo
Source text: We examined the effect of inhibiting H^+-V-ATPase activity on the expression of the early left-sided marker Sonic hedgehog (Shh). Inhibition of H^+-V-ATPase activity following treatment with concanamycin or DCCD specifically randomized the expression of Shh, as well as that of and the downstream marker Nodal. Compared to controls, in which these two markers are always left-sided, concanamycin induced aberrant sidedness of Shh expression in 67% and Nodal in 24% of embryos. Thus, as in Xenopus, H^+-V-ATPase is upstream of the known asymmetric gene cascade, and is required for normal LR patterning in chicks.
To perform a pharmacological screen on chick embryos with minimal disturbance to normal morphogenesis, we optimized a chicken in ovo culture system. A small hole was made on the top of each egg (prior to incubation), and 5 ml of light albumin was removed. […]. Eggs were securely wrapped with Scotch tape, incubated at 37.5° C. to the desired stages, then fixed for analysis of laterality markers by in situ hybridization.
Whole mount in situ hybridization (WISH) on Xenopus was performed according to standard methods. DNA used to transcribe in situ hybridization probes were XNr-1 (Lohr et al., 1998, Developmental Genetics 23: 194-202; Lowe et al., 1996, Nature 381: 158-161); cShh (Levin et al., 1995, Cell 82: 803-814); cNodal (Levin et al., 1995, Cell 82: 803-814).

Xenopus embryos = type: in vivo; settings: treated from fertilization to stage 7; organs scored at stage 45

SMILES	effect on rate or extent of tail regeneration [1]	also measured
CCCCCCCO [heptanol]	no effect	toxicity to the worms (Dugesia japonica; 1-10 μM): not toxic; trunk fragments with anteriorization of both blastemas (Dugesia japonica; 1-10 μM in the medium, scored 7 days post-cutting): 43%; complete bipolar heads (Dugesia japonica; 1-10 μM, trunk fragments): 16%
CCOC(=O)c1cccc(N)c1 [tricaine]	absence of regeneration	
COc1ccc2c(c1OC)CN1CCc3cc4c(cc3C1C2)OCO4 (centres unmarked) [THB, Tetrahydroberberine]	no effect	
Cc1nc2c(OCc3ccccc3)cccn2c1CC#N [SCH28080]	no effect	
CCN(c1nc(N)c(C(=O)NC(=N)N)nc1Cl)C(C)C [EIPA, Ethylisopropyl amiloride]	no effect	
C[C@@H]1O[C@@H](O[C@H]2C[C@@H](O)[C@]3(CO)[C@H]4[C@H](O)C[C@]5(C)[C@@H](C6=CC(=O)OC6)CC[C@]5(O)[C@@H]4CC[C@]3(O)C2)[C@H](O)[C@H](O)[C@H]1O [ouabain]	no effect	
CC1(C)[C@@H](O)CC[C@]2(C)[C@H]3C(=O)C=C4[C@@H]5C[C@@](C)(C(=O)O)CC[C@]5(C)CC[C@@]4(C)[C@]3(C)CC[C@@H]12 [18-β-glycyrrhetinic acid]	no effect	
[Ba+2].[Cl-].[Cl-] [BaCl]	absence of regeneration	
O=C1CCC(N2Cc3ccccc3C2=O)C(=O)N1 (centres unmarked) [EM12]	no effect	
COc1ccc(Cl)cc1C(=O)NCCc1ccc(S(=O)(=O)NC(=O)NC2CCCCC2)cc1 [glibenclamide]	no effect	
CC1=NS(=O)(=O)c2cc(Cl)ccc2N1 [diazoxide]	no effect	
C(=NC1CCCCC1)=NC1CCCCC1 [DCCD]		expression of Shh and Nodal (sidedness) [2]: randomized
CCCCCCO [hexanol]		strong anteriorization of the posterior blastema (Dugesia japonica; in vivo): never induced strong anteriorization; tail regeneration (Dugesia japonica; in vivo): did inhibit tail regeneration
O=C(O)c1c2ccccc2cc2ccccc12 [9-anthracene-carboxylic acid]	no effect	
N=C(N)NC(=O)c1nc(Cl)c(N)nc1N [amiloride]	no effect	
CO/C1=C\C(C)=C\[C@@H](C)[C@@H](O)[C@@H](C)C/C(C)=C/C=C/[C@H](OC)[C@@H]([C@@H](C)[C@@H](O)[C@H](C)[C@@]2(O)C[C@@H](O)[C@H](C)[C@@H](C(C)C)O2)OC1=O [bafilomycin]		heterotaxia, % of the embryos (Xenopus embryos): 36%

Reference: US20080131920A1, “Ion flux in biological processes, and methods related thereto” (priority 2005, published 2008)
